Patent US11491120B2, “Pharmacological prophylactics against stress-induced affective disorders in females” (The Trustees of Columbia University in the City of New York, priority 2017, dated 2022)

Test system: female 129S6/SvEv mice
Assay: Forced swim test (FST), immobility time, after stress
Conditions: 1 week prophylactic drug
[1] = Forced Swim Test Day 1, Dunnett test Sal vs. drug (0.025)
[2] = Forced Swim Test Day 1, Dunnett test Sal vs. drug (0.075)
[3] = Forced Swim Test Day 1, Dunnett test Sal vs. drug (0.1)
[4] = Forced Swim Test Day 1, Dunnett test Sal vs. drug (0.3)

N[C@]1(c2ccccc2Cl)CCC[C@H](O)C1=O [(2S,6S)-HNK]
p, Sal vs. drug, Dunnett test: Immobility Time (min 1), Forced Swim Test Day 2 (0.025 mg/kg): 0.9954
p, Sal vs. drug, Dunnett test: Immobility Time (min 1-6), Forced Swim Test Day 2 (0.025 mg/kg): 0.9996
p, Sal vs. drug, Dunnett test: Immobility Time (min 2), Forced Swim Test Day 2 (0.025 mg/kg): 0.9993
p, Sal vs. drug, Dunnett test: Immobility Time (min 4), Forced Swim Test Day 2 (0.025 mg/kg): 0.9518
p, Sal vs. drug, Dunnett test: Immobility Time (min 5), Forced Swim Test Day 2 (0.025 mg/kg): 0.9885
p, Sal vs. drug, Dunnett test: Immobility Time (min 6), Forced Swim Test Day 2 (0.025 mg/kg): >0.9999
p, Sal vs. drug, Dunnett test: Immobility Time Average (min 3-6), Forced Swim Test Day 2 (0.025 mg/kg): 0.9999
* (significance), Sal vs. drug, Dunnett test: Immobility Time (min 1-6), Forced Swim Test Day 2 (0.075 mg/kg): ** (** p<0.01)
* (significance), Sal vs. drug, Dunnett test: Immobility Time (min 5), Forced Swim Test Day 2 (0.075 mg/kg): *** (*** p<0.0001)
* (significance), Sal vs. drug, Dunnett test: Immobility Time (min 6), Forced Swim Test Day 2 (0.075 mg/kg): ** (** p<0.01)
p, Sal vs. drug, Dunnett test: Immobility Time (min 1), Forced Swim Test Day 2 (0.075 mg/kg): 0.9993
p, Sal vs. drug, Dunnett test: Immobility Time (min 1-6), Forced Swim Test Day 2 (0.075 mg/kg): 0.0025
p, Sal vs. drug, Dunnett test: Immobility Time (min 2), Forced Swim Test Day 2 (0.075 mg/kg): 0.9998
p, Sal vs. drug, Dunnett test: Immobility Time (min 4), Forced Swim Test Day 2 (0.075 mg/kg): 0.3169
p, Sal vs. drug, Dunnett test: Immobility Time (min 5), Forced Swim Test Day 2 (0.075 mg/kg): <0.0001
p, Sal vs. drug, Dunnett test: Immobility Time (min 6), Forced Swim Test Day 2 (0.075 mg/kg): 0.0013
p, Sal vs. drug, Dunnett test: Immobility Time Average (min 3-6), Forced Swim Test Day 2 (0.075 mg/kg): 0.9990
* (significance), Sal vs. drug, Dunnett test: Immobility Time (min 1), Forced Swim Test Day 2 (0.1 mg/kg): * (* p<0.05)
p, Sal vs. drug, Dunnett test: Immobility Time (min 1), Forced Swim Test Day 2 (0.1 mg/kg): 0.0291
p, Sal vs. drug, Dunnett test: Immobility Time (min 1-6), Forced Swim Test Day 2 (0.1 mg/kg): 0.2191
p, Sal vs. drug, Dunnett test: Immobility Time (min 2), Forced Swim Test Day 2 (0.1 mg/kg): 0.4741
p, Sal vs. drug, Dunnett test: Immobility Time (min 4), Forced Swim Test Day 2 (0.1 mg/kg): 0.9995
p, Sal vs. drug, Dunnett test: Immobility Time (min 5), Forced Swim Test Day 2 (0.1 mg/kg): 0.9990
p, Sal vs. drug, Dunnett test: Immobility Time (min 6), Forced Swim Test Day 2 (0.1 mg/kg): 0.9952
p, Sal vs. drug, Dunnett test: Immobility Time Average (min 3-6), Forced Swim Test Day 2 (0.1 mg/kg): 0.9623
p, Sal vs. drug, Dunnett test: Immobility Time (min 1), Forced Swim Test Day 2 (0.3 mg/kg): 0.2627
p, Sal vs. drug, Dunnett test: Immobility Time (min 1-6), Forced Swim Test Day 2 (0.3 mg/kg): 0.9993
p, Sal vs. drug, Dunnett test: Immobility Time (min 2), Forced Swim Test Day 2 (0.3 mg/kg): 0.7509
p, Sal vs. drug, Dunnett test: Immobility Time (min 4), Forced Swim Test Day 2 (0.3 mg/kg): 0.9997
p, Sal vs. drug, Dunnett test: Immobility Time (min 5), Forced Swim Test Day 2 (0.3 mg/kg): 0.9882
p, Sal vs. drug, Dunnett test: Immobility Time (min 6), Forced Swim Test Day 2 (0.3 mg/kg): 0.4546
p, Sal vs. drug, Dunnett test: Immobility Time Average (min 3-6), Forced Swim Test Day 2 (0.3 mg/kg): 0.9999
p, Sal vs. drug, Dunnett test: Immobility Time (min 1), Forced Swim Test Day 2 (2.5 mg/kg): 0.9998
p, Sal vs. drug, Dunnett test: Immobility Time (min 1-6), Forced Swim Test Day 2 (2.5 mg/kg): 0.5400
p, Sal vs. drug, Dunnett test: Immobility Time (min 2), Forced Swim Test Day 2 (2.5 mg/kg): >0.9999
p, Sal vs. drug, Dunnett test: Immobility Time (min 4), Forced Swim Test Day 2 (2.5 mg/kg): 0.8764
p, Sal vs. drug, Dunnett test: Immobility Time (min 5), Forced Swim Test Day 2 (2.5 mg/kg): 0.6601
p, Sal vs. drug, Dunnett test: Immobility Time (min 6), Forced Swim Test Day 2 (2.5 mg/kg): 0.9992
p, Sal vs. drug, Dunnett test: Immobility Time Average (min 3-6), Forced Swim Test Day 2 (2.5 mg/kg): 0.9957
p, Sal vs. drug, Dunnett test: Immobility Time (min 1), Forced Swim Test Day 2 (10 mg/kg): 0.6616
p, Sal vs. drug, Dunnett test: Immobility Time (min 1-6), Forced Swim Test Day 2 (10 mg/kg): >0.9999
p, Sal vs. drug, Dunnett test: Immobility Time (min 2), Forced Swim Test Day 2 (10 mg/kg): 0.9991
p, Sal vs. drug, Dunnett test: Immobility Time (min 4), Forced Swim Test Day 2 (10 mg/kg): 0.9999
p, Sal vs. drug, Dunnett test: Immobility Time (min 5), Forced Swim Test Day 2 (10 mg/kg): 0.9877
p, Sal vs. drug, Dunnett test: Immobility Time (min 6), Forced Swim Test Day 2 (10 mg/kg): 0.9994
p, Sal vs. drug, Dunnett test: Immobility Time Average (min 3-6), Forced Swim Test Day 2 (10 mg/kg): 0.9999
* (significance), Immobility Time (min 1) [1]: ** (** p<0.01)
p, Immobility Time (min 1) [1]: 0.0031
p, Immobility Time (min 1-6) [1]: 0.8484
p, Immobility Time (min 3) [1]: 0.9997
p, Immobility Time (min 4) [1]: >0.9999
p, Immobility Time (min 5) [1]: >0.9999
p, Immobility Time (min 6) [1]: 0.9993
p, Immobility Time Average (min 3-6) [1]: 0.9997
p, Immobility Time (min 1) [2]: 0.0820
p, Immobility Time (min 1-6) [2]: 0.0650
p, Immobility Time (min 3) [2]: 0.9489
p, Immobility Time (min 4) [2]: 0.9482
p, Immobility Time (min 5) [2]: 0.9436
p, Immobility Time (min 6) [2]: 0.6982
p, Immobility Time Average (min 3-6) [2]: 0.7901
* (significance), Immobility Time (min 1) [3]: *** (*** p<0.0001)
p, Immobility Time (min 1) [3]: <0.0001
p, Immobility Time (min 1-6) [3]: 0.5664
p, Immobility Time (min 3) [3]: 0.9993
p, Immobility Time (min 4) [3]: 0.9993
p, Immobility Time (min 5) [3]: 0.9869
p, Immobility Time (min 6) [3]: >0.9999
p, Immobility Time Average (min 3-6) [3]: 0.9992
* (significance), Immobility Time (min 1) [4]: * (* p<0.05)
* (significance), Immobility Time (min 1-6) [4]: * (* p<0.05)
p, Immobility Time (min 1) [4]: 0.0277
p, Immobility Time (min 1-6) [4]: 0.0361
p, Immobility Time (min 3) [4]: 0.4573
p, Immobility Time (min 4) [4]: 0.8163
p, Immobility Time (min 5) [4]: 0.9482
p, Immobility Time (min 6) [4]: 0.6194
